Test results reported in patent US8519149B2, “Tricyclic compounds as mPGES-1 inhibitors” (Glenmark Pharmaceuticals S.A., priority 2010, dated 2013).

Target: T1, Recombinant human mPGES-1 (Homo sapiens, UniProt O14684)
T1 sequence (O14684 1-152): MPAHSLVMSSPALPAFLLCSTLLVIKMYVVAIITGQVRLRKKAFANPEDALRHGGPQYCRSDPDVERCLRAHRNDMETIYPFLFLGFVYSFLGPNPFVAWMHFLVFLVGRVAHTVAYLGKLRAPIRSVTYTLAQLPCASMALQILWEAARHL
Experiment: In-vitro mPGES-1 enzyme inhibition assay (PGE2 formation from PGH2, HTRF detection)
Assay type: biochemical
Conditions: for inhibition at 1 µM: 1 μM test compound, read-out: Percentage inhibition at 1 μM; for inhibition at 1 µM / inhibition at 10 µM: recombinant human mPGES-1 microsomal fraction; for inhibition at 10 µM: 10 μM test compound, read-out: Percentage inhibition at 10 μM; for IC50: class symbols, selected examples
Outline: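 IC50 values were derived by nonlinear regression of percent inhibition relative to enzyme reactions run without inhibitor. PGE2 formed from PGH2 with GSH was quantified by antibody-based HTRF after stannous chloride quench. Enzyme source was human mPGES-1 microsomes at 40-60 μg/mL protein; DMSO 0.5% (v/v).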

Row | Structure (SMILES) | inhibition at 1 µM [%] | inhibition at 10 µM [%] | IC50 [nM]
1 | CC1(C)Cc2c(c(C(=O)Nc3ccc(C(C)(C)C)cc3)cc3nc(Nc4c(F)cccc4Cl)[nH]c23)O1 [Example-114, N-(4-tert-Butylphenyl)-2-[(2-chloro-6-fluorophenyl)amino]-7,7-dimethyl-7,8-dihydro-1H-furo[3,2-e]benzimidazole-5-carboxamide] | 99.4 | 99.1 | < 50
2 | Cc1cc2c(o1)c(C(=O)Nc1ccc(C(F)(F)F)cc1)cc1nc(Nc3c(Cl)cncc3Cl)[nH]c12 [Example-32, 2-[(3,5-Dichloropyridin-4-yl)amino]-7-methyl-N-[4-(trifluoromethyl)phenyl]-1H-furo[3,2-e]benzimidazole-5-carboxamide] | 99 | 100 | 
3 | CCCCCNC(=O)c1cc2nc(Nc3c(Cl)cncc3Cl)[nH]c2c2c1OC(C)(C)C2 [Example-4, 2-[(3,5-Dichloropyridin-4-yl)amino]-7,7-dimethyl-N-pentyl-7,8-dihydro-1H-furo[3,2-e]benzimidazole-5-carboxamide] | 94.4 | 95 | < 50
4 | CC1(C)Cc2c(c(C(=O)Nc3nc4ccc(F)cc4s3)cc3nc(Nc4c(Cl)cccc4Cl)[nH]c23)O1 [Example-95, 2-[(2,6-Dichlorophenyl)amino]-N-(6-fluoro-1,3-benzothiazol-2-yl)-7,7-dimethyl-7,8-dihydro-1H-furo[3,2-e]benzimidazole-5-carboxamide] | 90.6 | 91.8 | < 50
5 | CC1(C)Cc2c(c(C(=O)Nc3ccccc3C(F)(F)F)cc3nc(Nc4ccccc4C(C)(C)C)[nH]c23)O1 [Example-98, 2-[(2-tert-Butylphenyl)amino]-7,7-dimethyl-N-[2-(trifluoromethyl)phenyl]-7,8-dihydro-1H-furo[3,2-e]benzimidazole-5-carboxamide] | 12 | 13.9 | 
6 | Cc1cc2c(o1)c(C(=O)NCc1ccc(F)cc1)cc1nc(Nc3c(Cl)cncc3Cl)[nH]c12 [Example-22, 2-[(3,5-Dichloropyridin-4-yl)amino]-N-(4-fluorobenzyl)-7-methyl-1H-furo[3,2-e]benzimidazole-5-carboxamide] | 85.8 | 98.8 | 
7 | Cc1cccc(Cl)c1Nc1nc2cc(C(=O)Nc3cc(C(F)(F)F)ccc3F)c3c(c2[nH]1)CC(C)(C)O3 [Example-110, 2-[(2-Chloro-6-methylphenyl)amino]-N-[2-fluoro-5-(trifluoromethyl)phenyl]-7,7-dimethyl-7,8-dihydro-1H-furo[3,2-e]benzimidazole-5-carboxamide] | 96.6 | 97.2 | < 50
8 | CC1(C)Cc2c(c(C(=O)NC34CC5CC(CC(C5)C3)C4)cc3nc(Nc4c(Cl)cncc4Cl)[nH]c23)O1 [Example-19, N-Adamantan-1-yl-2-[(3,5-dichloropyridin-4-yl)amino]-7,7-dimethyl-7,8-dihydro-1H-furo[3,2-e]benzimidazole-5-carboxamide] | 97.8 | 98.3 | < 50
9 | Cc1cc2c(o1)c(C(=O)NCc1ccc(F)cc1)cc1nc(Nc3c(F)cccc3Cl)[nH]c12 [Example-48, 2-[(2-Chloro-6-fluorophenyl)amino]-N-(4-fluorobenzyl)-7-methyl-1H-furo[3,2-e]benzimidazole-5-carboxamide] | 70.8 | 96.7 | 
10 | CC1(C)Cc2c(c(C(=O)NC3CCCCC3)cc3nc(Nc4c(Cl)cncc4Cl)sc23)O1 [Example-28, N-Cyclohexyl-2-[(3,5-dichloropyridin-4-yl)amino]-7,7-dimethyl-7,8-dihydrofuro[2,3-g][1,3]benzothiazole-5-carboxamide] | 87.3 | 98.9 | > 100
11 | CC1(C)Cc2c(c(C(=O)NCCF)cc3nc(Nc4c(Cl)cccc4Cl)[nH]c23)O1 [Example-63, 2-[(2,6-Dichlorophenyl)amino]-N-(2-fluoroethyl)-7,7-dimethyl-7,8-dihydro-1H-furo[3,2-e]benzimidazole-5-carboxamide] | 88 | 96.6 | 50 to 100
12 | CC(C)(C)CC(C)(C)NC(=O)c1cc2nc(Nc3c(F)cccc3Cl)[nH]c2c2c1OC(C)(C)C2 [Example-52, 2-[(2-Chloro-6-fluorophenyl)amino]-7,7-dimethyl-N-(2,4,4-trimethylpentan-2-yl)-7,8-dihydro-1H-furo[3,2-e]benzimidazole-5-carboxamide] | 94.3 | 96 | < 50
13 | Cc1ccc(Nc2nc3cc(C(=O)Nc4ccc(C(F)(F)F)cc4)c4c(c3[nH]2)CC(C)(C)O4)c(Cl)c1 [Example-87, 2-[(2-Chloro-4-methylphenyl)amino]-7,7-dimethyl-N-[4-(trifluoromethyl)phenyl]-7,8-dihydro-1H-furo[3,2-e]benzimidazole-5-carboxamide] | 87.4 | 92.2 | < 50
14 | CC1(C)Cc2c(c(C(=O)NCC3CC3)cc3nc(Nc4c(Cl)cncc4Cl)[nH]c23)O1 [Example-21, N-(Cyclopropylmethyl)-2-[(3,5-dichloropyridin-4-yl)amino]-7,7-dimethyl-7,8-dihydro-1H-furo[3,2-e]benzimidazole-5-carboxamide] | 96.8 | 99.8 | 
15 | Cc1nnc(NC(=O)c2cc3nc(Nc4c(Cl)cccc4Cl)[nH]c3c3c2OC(C)(C)C3)s1 [Example-38, 2-[(2,6-Dichlorophenyl)amino]-7,7-dimethyl-N-(5-methyl-1,3,4-thiadiazol-2-yl)-7,8-dihydro-1H-furo[3,2-e]benzimidazole-5-carboxamide] | 74.5 | 81.5 | 

Other lines, results leading:

Row | inhibition at 1 µM [%] | inhibition at 10 µM [%] | IC50 [nM] | Structure (SMILES)
16 | 33.1 | 92.2 |  | CC(C)c1noc(-c2cc3nc(Nc4c(F)cccc4Cl)[nH]c3c3c2OC(C)(C)C3)n1 [Example-156, N-(2-Chloro-6-fluorophenyl)-5-(3-isopropyl-1,2,4-oxadiazol-5-yl)-7,7-dimethyl-7,8-dihydro-1H-benzofuro[4,5-d]imidazol-2-amine]
17 | 99.4 | 100 |  | Cn1c(Nc2c(Cl)cncc2Cl)nc2cc(C(=O)Nc3cc(C(F)(F)F)ccc3F)c3c(c21)CC(C)(C)O3 [Example-218, 2-((3,5-Dichloropyridin-4-yl)amino)-N-(2-fluoro-5-(trifluoromethyl)phenyl)-1,7,7-trimethyl-7,8-dihydro-1H-benzofuro[4,5-d]imidazole-5-carboxamide]
18 | 94.7 | 99 | < 50 | CC1(C)Cc2c(c(C(=O)NC3(c4cccc(C(F)(F)F)c4)CC3)cc3nc(Nc4c(F)cccc4Cl)[nH]c23)O1 [Example-127, 2-((2-Chloro-6-fluorophenyl)amino)-7,7-dimethyl-N-(1-(3-(trifluoromethyl)phenyl)cyclopropyl)-7,8-dihydro-1H-benzofuro[4,5-d]imidazole-5-carboxamide]
19 | 77 | 97.4 |  | CC1(C)Cc2c(c(C(=O)Nc3ccc(C(F)(F)F)c[n+]3[O-])cc3nc(Nc4c(F)cccc4Cl)[nH]c23)O1 [Example-158, 2-(2-((2-Chloro-6-fluorophenyl)amino)-7,7-dimethyl-7,8-dihydro-1H-benzofuro[4,5-d]imidazole-5-carboxamido)-5-(trifluoromethyl)pyridine 1-oxide]
20 | 97 | 98.7 | > 100 | CC1(C)Cc2c(c(C(=O)NC3(c4ccccc4C(F)(F)F)CC3)cc3nc(Nc4c(F)cccc4Cl)[nH]c23)O1 [Example-118, 2-[(2-Chloro-6-fluorophenyl)amino]-7,7-dimethyl-N-{1-[2-(trifluoromethyl)phenyl]cyclopropyl}-7,8-dihydro-1H-furo[3,2-e]benzimidazole-5-carboxamide]
21 | 19.6 | 39.2 |  | CC1(C)Cc2c(c(C(=O)Nc3cccc(C(F)(F)F)c3)cc3nc(NC(=O)c4c(F)cccc4Cl)[nH]c23)O1 [Example-143, 2-(2-Chloro-6-fluorobenzamido)-7,7-dimethyl-N-(3-(trifluoromethyl)phenyl)-7,8-dihydro-1H-benzofuro[4,5-d]imidazole-5-carboxamide]
22 | 99.4 | 100 | < 50 | CC1(C)Cc2c(c(C(=O)Nc3cc(F)c(F)cc3F)cc3nc(Nc4c(Cl)cncc4Cl)[nH]c23)O1 [Example-199, 2-((3,5-Dichloropyridin-4-yl)amino)-7,7-dimethyl-N-(2,4,5-trifluorophenyl)-7,8-dihydro-1H-benzofuro[4,5-d]imidazole-5-carboxamide]
23 | 97.7 | 99.6 |  | CC1(C)Cc2c(c(C(=O)Nc3ccc(C(F)(F)F)nc3)cc3nc(Nc4c(Cl)cccc4Cl)[nH]c23)O1 [Example-166, 2-((2,6-Dichlorophenyl)amino)-7,7-dimethyl-N-(6-(trifluoromethyl)pyridin-3-yl)-7,8-dihydro-1H-benzofuro[4,5-d]imidazole-5-carboxamide]
24 | 96.6 | 97.7 | < 50 | CC1(C)Cc2c(c(C(=O)Nc3ncc(Cl)cc3F)cc3nc(Nc4c(F)cccc4Cl)[nH]c23)O1 [Example-126, N-(5-Chloro-3-fluoropyridin-2-yl)-2-((2-chloro-6-fluorophenyl)amino)-7,7-dimethyl-7,8-dihydro-1H-benzofuro[4,5-d]imidazole-5-carboxamide]
25 | 80.8 | 89.4 | < 50 | Cc1nc2c(o1)c(C(=O)Nc1ccc(F)cc1)cc1nc(Nc3c(Cl)cccc3Cl)[nH]c12 [Example-177, 7-[(2,6-Dichlorophenyl)amino]-N-(4-fluorophenyl)-2-methyl-8H-imidazo[4,5-e][1,3]benzoxazole-4-carboxamide]
